# US20250064864A1, “MICROBIAL STRAIN OF LACHNOSPIRACEAE, DRUG FOR PREVENTING OR TREATING TUMORS AND USE” (MOON (GUANGZHOU) BIOTECH CO., LTD., priority 2021, published 2025)
# Where two headings read alike, the source gives them in different places.
# Tests used:
# MNH 46686 strain = test: Antibiotic susceptibility test by disk diffusion method; type: cell-based, Lachnospiraceae sp. MNH 46686; conditions: for Diameter of inhibition zone: against MNH 46686 strain
# Text: 2.4 Antibiotic Susceptibility Test of MNH 46686 Strain by Disk Diffusion Method
# IFNβ = test: THP-1 IFNβ-promoter reporter (luciferase) assay; type: cell-based; conditions: 20 μM, 40 μM and 80 μM, 24 h
# Text: Interferon (IFN) […] are a group of cytokines secreted by host cells, which can regulate immune responses. Interferons are produced under stimulation by viruses, bacterial endotoxins, synthetic double-stranded RNAs, etc. Macrophages, lymphocytes, somatic cells, etc., in the human body can all produce interferons, in which IFNβ belongs to type I interferons and can promote the activities of NK cells, macrophages, and T lymphocytes. […] Furthermore, the MNH 46686 strain of the present disclosure has been experimentally verified to be able to promote the expression of IFNβ, thereby exerting anti-viral, anti-tumor, immunomodulatory, and other effects. In order to verify whether MNH 46686 can promote the expression of IFNβ, the constructed THP-1 cells (a cell line established by Moon Co.) carrying the IFNβ-promoter reporter were used in this study to evaluate the effect of MNH 46686 on the transcriptional activity of IFNβ. […]
# The THP-1-IFNβ-promoter reporter cells were inoculated in a 96-well plate, with 1×10^5 cells per well. […] The chemiluminescence values were detected with a microplate reader. The relative luminescence values were normalized to the untreated group and compared with the relative luminescence readings of the High group to evaluate the effect of MNH 46686 on the transcriptional activity of IFNβ.
Molecule,Note (susceptibility of MNH 46686 strain to the antibiotic) (MNH 46686 strain),Diameter of inhibition zone (MNH 46686 strain) [mm],further results
CC1(C)S[C@@H]2[C@H](NC(=O)[C@H](N)c3ccccc3)C(=O)N2[C@H]1C(=O)O [Ampicillin],Resistant,0.00,Note (susceptibility of MNH 46686 strain to the antibiotic) (MNH 46686 strain; listed as ampicillin): resistant
CO/N=C(\C(=O)N[C@@H]1C(=O)N2C(C(=O)O)=C(CSc3nc(=O)c(=O)[nH]n3C)CS[C@H]12)c1csc(N)n1 [Ceftriaxone],Resistant,0.00,Note (susceptibility of MNH 46686 strain to the antibiotic) (MNH 46686 strain; listed as ceftriaxone): resistant
O=C(N[C@H](CO)[C@H](O)c1ccc([N+](=O)[O-])cc1)C(Cl)Cl [Chloramphenicol],Sensitive,18.45,Note (susceptibility of MNH 46686 strain to the antibiotic) (MNH 46686 strain; listed as chloramphenicol): sensitive
O=C(O)c1cn(C2CC2)c2cc(N3CCNCC3)c(F)cc2c1=O [Ciprofloxacin],Resistant,0.00,Note (susceptibility of MNH 46686 strain to the antibiotic) (MNH 46686 strain; listed as ciprofloxacin): resistant
CC[C@H]1OC(=O)[C@H](C)[C@@H](O[C@H]2C[C@@](C)(OC)[C@@H](O)[C@H](C)O2)[C@H](C)[C@@H](O[C@@H]2O[C@H](C)C[C@H](N(C)C)[C@H]2O)[C@](C)(O)C[C@@H](C)C(=O)[C@H](C)[C@@H](O)[C@]1(C)O [Erythromycin],Resistant,0.00,Note (susceptibility of MNH 46686 strain to the antibiotic) (MNH 46686 strain; listed as erythromycin): resistant
CCC[C@@H]1C[C@@H](C(=O)N[C@@H]([C@H]2O[C@H](SC)[C@H](O)[C@@H](O)[C@H]2O)[C@@H](C)O)N(C)C1 [Lincomycin],Resistant,0.00,Note (susceptibility of MNH 46686 strain to the antibiotic) (MNH 46686 strain; listed as lincomycin): resistant
COc1cc2cc(C(=O)CCC(=O)O)sc2cc1OC [MSA-2],–,–,response of the IFNβ reporter system to the positive drug (IFNβ): good response
CN(C)[C@@H]1C(O)=C(C(N)=O)C(=O)[C@@]2(O)C(O)=C3C(=O)c4c(O)cccc4[C@@](C)(O)[C@H]3C[C@@H]12 [Tetracycline],–,12.01,–
Gentamicin,Sensitive,10.90,Note (susceptibility of MNH 46686 strain to the antibiotic) (MNH 46686 strain; listed as gentamicin): sensitive
Penicillin,Sensitive,19.69,Note (susceptibility of MNH 46686 strain to the antibiotic) (MNH 46686 strain; listed as penicillin): sensitive
Trimethoprim-sulfamethoxazole,Resistant,0.00,Note (susceptibility of MNH 46686 strain to the antibiotic) (MNH 46686 strain; listed as trimethoprim-sulfamethoxazole): resistant
